Laboratory results: patent US20120132797A1, “MEANS AND METHODS FOR DIAGNOSING THYROID DISORDERS” (BASF SE, priority 2009, published 2012)

System: Wistar (Crl:WI(Han)) rats
Experiment: Mass spectrometry-based plasma metabolite profiling of rats treated with known inducers of thyroid function impairment
Format: in vivo, rat
Conditions: ratio of group medians vs controls
Summary of the method: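 Rats aged 10-11 weeks, 5/sex/dose vs 10/sex controls, dosed at low and high levels; retro-orbital plasma taken under isoflurane on days 7, 14 and 28 after 16-20 h fast. Polar and non-polar fractions profiled by GC-MS (derivatised) and LC-MS/MS (MRM plus full scan), normalised to pool samples; Welch t-test by sex and day gives p-values and median ratios.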

[1] = female rats, fh7 (study day 7), Table 1
[2] = female rats, fh14 (study day 14), Table 1
[3] = female rats, fh28 (study day 28), Table 1
[4] = male rats, mh7 (study day 7), Table 2
[5] = male rats, mh7 (study day 7), Table 4
[6] = male rats, mh14 (study day 14), Table 2
[7] = male rats, mh14 (study day 14), Table 4
[8] = male rats, mh28 (study day 28), Table 2
[9] = male rats, mh28 (study day 28), Table 4

Cn1cc[nH]c1=S [Methimazole]
5-O-Methylsphingosine [1]: 3.55
Asparagine [1]: 1.17
Behenic acid (C22:0) [1]: 2.08
Citrate [1]: 0.83
Docosahexaenoic acid (C22:cis[4,7,10,13,16]6) [1]: 2.16
Glycine [1]: 1.14
Ketoleucine [1]: 0.86
Lysophosphatidylcholine (C18:2) [1]: 1.52
Phosphatidylcholine (C16:1, C18:2) [1]: 1.89
Phosphatidylcholine (C18:2, C20:4) [1]: 1.39
Pyruvate [1]: 0.62
Tricosanoic acid (C23:0) [1]: 2.05
erythro-Sphingosine [1]: 2.56
threo-Sphingosine [1]: 2.46
Sphingomyelin (d18:1, C16:0) (female rats, fh7 (study day 7), Table 1, first listing): 1.89
Sphingomyelin (d18:1, C16:0) (female rats, fh7 (study day 7), Table 1, second listing): 1.45
5-O-Methylsphingosine [2]: 3.80
Asparagine [2]: 1.12
Behenic acid (C22:0) [2]: 2.63
Citrate [2]: 0.76
Docosahexaenoic acid (C22:cis[4,7,10,13,16]6) [2]: 1.32
Glycine [2]: 1.14
Ketoleucine [2]: 0.80
Lysophosphatidylcholine (C18:2) [2]: 1.57
Phosphatidylcholine (C16:1, C18:2) [2]: 2.40
Phosphatidylcholine (C18:2, C20:4) [2]: 1.25
Pyruvate [2]: 0.53
Tricosanoic acid (C23:0) [2]: 2.54
erythro-Sphingosine [2]: 3.21
threo-Sphingosine [2]: 3.21
Sphingomyelin (d18:1, C16:0) (female rats, fh14 (study day 14), Table 1, first listing): 2.54
Sphingomyelin (d18:1, C16:0) (female rats, fh14 (study day 14), Table 1, second listing): 1.44
5-O-Methylsphingosine [3]: 2.83
Asparagine [3]: 1.12
Behenic acid (C22:0) [3]: 2.03
Citrate [3]: 0.84
Docosahexaenoic acid (C22:cis[4,7,10,13,16]6) [3]: 1.22
Glycine [3]: 1.28
Ketoleucine [3]: 0.78
Lysophosphatidylcholine (C18:2) [3]: 1.31
Phosphatidylcholine (C16:1, C18:2) [3]: 2.21
Phosphatidylcholine (C18:2, C20:4) [3]: 1.33
Pyruvate [3]: 0.79
Tricosanoic acid (C23:0) [3]: 1.96
erythro-Sphingosine [3]: 2.44
threo-Sphingosine [3]: 2.37
Sphingomyelin (d18:1, C16:0) (female rats, fh28 (study day 28), Table 1, first listing): 1.77
Sphingomyelin (d18:1, C16:0) (female rats, fh28 (study day 28), Table 1, second listing): 1.31
3-O-Methylsphingosine [4]: 3.47
5-O-Methylsphingosine [4]: 3.57
14-Methyl-Pentadecanoic acid [4]: 1.13
17-Methyloctadecanoic acid [4]: 1.36
Arginine [4]: 1.09
Cholesterol [4]: 1.98
Citrate [4]: 0.69
Dihom-gamma-Linolenic acid (C20:cis[8,11,14]3) [4]: 2.38
Lignoceric acid (C24:0) [4]: 2.12
Phytosphingosine [4]: 2.08
Sphingomyelin (d18:1, C16:0) [4]: 2.24
Tricosanoic acid (C23:0) [4]: 1.93
alpha-Tocopherol [4]: 1.76
erythro-Sphingosine [4]: 2.92
threo-Sphingosine [4]: 3.02
Glutamate (male rats, mh7 (study day 7), Table 2, first listing): 0.61
Glutamate (male rats, mh7 (study day 7), Table 2, second listing): 0.75
Behenic acid (C22:0) [5]: 2.02
Cholesterol [5]: 1.69
Citrate [5]: 0.69
Cytosine [5]: 0.65
Galactose, lipid fraction [5]: 1.60
Glycerol phosphate [5]: 2.09
Glycine [5]: 1.42
Lignoceric acid (C24:0) [5]: 2.12
Mannose [5]: 1.06
Nervonic acid C24:(cis[15]1) [5]: 2.59
Phospha-tidylcholine (C18:0, 18:2) [5]: 1.11
Sphingomyelin (d18:1, C16:0) [5]: 2.24
Stearic acid (C18:0) [5]: 1.34
Threonic acid [5]: 0.72
dihomo-gamma-Linolenic acis (C20:cis[8,11,14]3) [5]: 2.38
erythro-Sphingosine [5]: 2.92
myo-Inositol-2-phosphate [5]: 2.55
threo-Sphingosine [5]: 3.02
3-O-Methylsphingosine [6]: 3.85
5-O-Methylsphingosine [6]: 4.15
14-Methyl-Pentadecanoic acid [6]: 0.85
17-Methyloctadecanoic acid [6]: 0.92
Arginine [6]: 1.09
Cholesterol [6]: 2.31
Citrate [6]: 0.69
Dihom-gamma-Linolenic acid (C20:cis[8,11,14]3) [6]: 3.22
Lignoceric acid (C24:0) [6]: 2.82
Phytosphingosine [6]: 2.92
Sphingomyelin (d18:1, C16:0) [6]: 2.27
Tricosanoic acid (C23:0) [6]: 2.69
alpha-Tocopherol [6]: 2.66
erythro-Sphingosine [6]: 3.71
threo-Sphingosine [6]: 3.78
Glutamate (male rats, mh14 (study day 14), Table 2, first listing): 0.57
Glutamate (male rats, mh14 (study day 14), Table 2, second listing): 0.49
Behenic acid (C22:0) [7]: 3.03
Cholesterol [7]: 1.93
Citrate [7]: 0.69
Cytosine [7]: 0.46
Galactose, lipid fraction [7]: 1.46
Glycerol phosphate [7]: 1.67
Glycine [7]: 1.25
Lignoceric acid (C24:0) [7]: 2.82
Mannose [7]: 1.04
Nervonic acid C24:(cis[15]1) [7]: 3.00
Phospha-tidylcholine (C18:0, 18:2) [7]: 1.28
Sphingomyelin (d18:1, C16:0) [7]: 2.27
Stearic acid (C18:0) [7]: 1.40
Threonic acid [7]: 0.69
dihomo-gamma-Linolenic acis (C20:cis[8,11,14]3) [7]: 3.22
erythro-Sphingosine [7]: 3.71
myo-Inositol-2-phosphate [7]: 2.35
threo-Sphingosine [7]: 3.78
3-O-Methylsphingosine [8]: 4.55
5-O-Methylsphingosine [8]: 3.40
14-Methyl-Pentadecanoic acid [8]: 0.54
17-Methyloctadecanoic acid [8]: 0.45
Arginine [8]: 1.14
Cholesterol [8]: 2.03
Citrate [8]: 0.73
Dihom-gamma-Linolenic acid (C20:cis[8,11,14]3) [8]: 2.02
Lignoceric acid (C24:0) [8]: 2.16
Phytosphingosine [8]: 3.04
Sphingomyelin (d18:1, C16:0) [8]: 1.92
Tricosanoic acid (C23:0) [8]: 2.50
alpha-Tocopherol [8]: 2.18
erythro-Sphingosine [8]: 3.47
threo-Sphingosine [8]: 4.30
Glutamate (male rats, mh28 (study day 28), Table 2, first listing): 0.46
Glutamate (male rats, mh28 (study day 28), Table 2, second listing): 0.40
Behenic acid (C22:0) [9]: 3.01
Cholesterol [9]: 1.56
Citrate [9]: 0.73
Cytosine [9]: 0.39
Galactose, lipid fraction [9]: 1.53
Glycerol phosphate [9]: 1.46
Glycine [9]: 0.98
Lignoceric acid (C24:0) [9]: 2.16
Mannose [9]: 0.87
Nervonic acid C24:(cis[15]1) [9]: 2.23
Phospha-tidylcholine (C18:0, 18:2) [9]: 1.35
Sphingomyelin (d18:1, C16:0) [9]: 1.92
Stearic acid (C18:0) [9]: 1.16
Threonic acid [9]: 0.69
dihomo-gamma-Linolenic acis (C20:cis[8,11,14]3) [9]: 2.02
erythro-Sphingosine [9]: 3.47
myo-Inositol-2-phosphate [9]: 1.85
threo-Sphingosine [9]: 4.30
